From patent US11639350B2, “Heteroaryldihydropyrimidine derivatives and methods of treating hepatitis B infections” (Janssen Pharmaceutica NV, priority 2018, dated 2023)
Like-named read-outs stand apart in the source and are kept apart here.

Key:
[1] = tested on: HBV; test: HBV inhibitory activity: HBV DNA in the culture medium of HepG2.2.15 cells by q-PCR; assay type: cell-based; conditions: HepG2.2.15 cells, 6 days of compound treatment, HBV DNA in culture medium by q-PCR, highest concentration 10 μM, read-out: EC50
In short: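 HepG2.2.15 cells in 2% FBS medium, 40,000 per well, treated 6 days with compound (medium refreshed once), eight 3-fold dilutions from 10 μM top. HBV DNA extracted from culture medium and quantified by q-PCR; EC50 averaged over repeats. Cytotoxicity run in parallel at 5,000 cells per well, top 100 μM, giving CC50.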

[2] = Cytotoxicity determination in HepG2.2.15 cells (CCK-8); assay type: cell-based; conditions: human, 6 days of compound treatment, CCK-8, highest concentration 100 μM
In short: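 HepG2.2.15 cells seeded at 5,000 cells/well in 2% FBS medium, incubated overnight at 37° C., then treated 6 days with compounds (8 points, 3-fold dilutions, top 100 μM), medium refreshed once midway. CCK-8 added for 2.5 h; A450 read against 630 nm reference; CC50 calculated, averaged over repeats.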

[3] = Hepatitis B virus, HepG2.2.15, 144 h

Row | Compound | EC50 [1, 3] [nM] | CC50 at 6 days [2] [nM] | EC50 [1] [nM]
1 | COC(=O)C1=C(C2CCN(S(C)(=O)=O)CC2)NC(c2nccs2)=NC1c1cccc(F)c1Cl (single isomer, unassigned) [Compound 112B, Methyl 4-(2-chloro-3-fluorophenyl)-6-(1-(methylsulfonyl)-piperidin-4-yl)-2-(thiazol-2-yl)-1,4-dihydropyrimidine-5-carboxylate] | 950 | 8200 | 
2 | CCOC(=O)C1=C([C@H]2CC[C@H](C(=O)O)CC2)NC(c2nccs2)=NC1c1ccc(F)cc1Br (stereo partly shown) [Compound 156] | 71 | 34900 | 
3 | CCOC(=O)C1=C(C2CCN(S(=O)(=O)[C@H]3CC[C@H](C(=O)O)CC3)CC2)NC(c2nccs2)=NC1c1ccc(F)c(F)c1Cl (relative stereo) [Compound 354C, (trans)-4-((4-(6-(2-Chloro-3,4-difluorophenyl)-5-(ethoxycarbonyl)-2-(thiazol-2-yl)-3,6-dihydropyrimidin-4-yl)piperidin-1-yl)sulfonyl)cyclohexane-carboxylic Acid] | 15 | 7900 | 
4 | COC(=O)C1=C(C2CCN(S(=O)(=O)c3cnn(C)c3)CC2)NC(c2nccs2)=NC1c1ccc(F)cc1Cl (stereo not shown) [Compound 165, Methyl 4-(2-chloro-4-fluorophenyl)-6-(1-((1-methyl-1H-pyrazol-4-yl)sulfonyl)piperidin-4-yl)-2-(thiazol-2-yl)-1,4-dihydropyrimidine-5-carboxylate] | 12 | > 100000 | 
5 | CCOC(=O)C1=C(C2CCN(S(=O)(=O)[C@H]3C[C@@H](C(=O)O)C3)CC2)NC(c2nccs2)=NC1c1ccc(F)c(F)c1C (relative stereo) [Compound 343D, (cis)-3-((4-(6-(3,4-difluoro-2-methylphenyl)-5-(ethoxycarbonyl)-2-(thiazol-2-yl)-3,6-dihydropyrimidin-4-yl)piperidin-1-yl)sulfonyl)cyclobutane-carboxylic Acid] | 53 | 24000 | 
6 | COC(=O)C1=C(C2CCN(S(C)(=O)=O)CC2)NC(c2nccs2)=NC1c1ccc(Cl)cc1F (stereo not shown) [Compound 97B, 4-(4-Chloro-2-fluoro-phenyl)-6-(1-methanesulfonyl-pip-eridin-4-yl)-2-thiazol-2-yl-1,4-dihydro-pyrimidine-5-carboxylic Acid Methyl Ester] | 47 | > 100000 | 
7 | CCOC(=O)C1=C([C@H]2CC[C@H](C(=O)NC)CC2)NC(c2nccs2)=NC1c1ccc(F)cc1Cl (single isomer, unassigned) [Compound 132A, trans-Ethyl 4-(2-chloro-4-fluorophenyl)-6-(4-(methylcarbamoyl)-cyclohexyl)-2-(thiazol-2-yl)-1,4-dihydropyrimidine-5-carboxylate] | 472 | 23900 | 
8 | COC(=O)C1=C(C2CCN(S(=O)(=O)C3CCC(C(=O)OC(C)(C)C)CC3)CC2)NC(c2nccs2)=NC1c1ccc(F)cc1Cl (single isomer, unassigned) [Compound 312X, Methyl 6-(1-((4-(tert-butoxycarbonyl)cyclohexyl)sulfonyl)-piperidin-4-yl)-4-(2-chloro-4-fluorophenyl)-2-(thiazol-2-yl)-1,4-dihydropyrimidine-5-carboxylate] | 97 | > 100000 | 
9 | CCOC(=O)C1=C(C2CCN(S(=O)(=O)[C@H]3C[C@H](C(=O)O)C3)CC2)NC(c2nccs2)=NC1c1ccccc1Cl (stereo partly drawn) [Compound 146, (trans)-3-((4-(6-(2-chlorophenyl)-5-(ethoxycarbonyl)-2-(thiazol-2-yl)-3,6-dihydropyrimidin-4-yl)piperidin-1-yl)sulfonyl)cyclobutane-1-carboxylic Acid] | 68 | 42100 | 
10 | COC(=O)C1=C(C2CCN(S(=O)(=O)[C@H]3CC[C@@H](CC(=O)O)CC3)CC2)NC(c2nccs2)=NC1c1ccc(F)cc1Cl (relative stereo) [Compound 476B, (cis)-2-(4-((4-(6-(2-Chloro-4-fluorophenyl)-5-(methoxycarbonyl)-2-(thiazol-2-yl)-3,6-dihydropyrimidin-4-yl)piperidin-1-yl)sulfonyl)cyclohexyl)acetic Acid] | 44 | 30200 | 
11 | COC(=O)C1=C(C23CC(C(=O)O)(C2)C3)NC(c2nccs2)=NC1c1ccc(F)cc1Cl (stereo not shown) [Compound 258B, 3-(6-(2-Chloro-4-fluorophenyl)-5-(methoxycarbonyl)-2-(thiazol-2-yl)-3,6-dihydropyrimidin-4-yl)bicyclo[1.1.1]pentane-1-carboxylic Acid] | 401 | 27400 | 
12 | COC(=O)C1=C([C@H]2CC[C@H](C(=O)OC)CC2)NC(c2nccs2)=NC1c1ccc(F)cc1Br (relative stereo) [Compound 224, (trans)-Methyl 4-(2-bromo-4-fluorophenyl)-6-(4-(methoxycarbonyl)cyclohexyl)-2-(thiazol-2-yl)-1,4-dihydropyrimidine-5-carboxylate] | 71 | 28400 | 
13 | COC(=O)C1=C(C2CCN(S(=O)(=O)c3cnn(C[C@H](C)O)c3)CC2)NC(c2nccs2)=NC1c1ccc(F)cc1Cl (stereo partly drawn) [Compound 360D, methyl 4-(2-chloro-4-fluorophenyl)-6-(1-((1-((S)-2-hydroxypropyl)-1H-pyrazol-4-yl)sulfonyl)piperidin-4-yl)-2-(thiazol-2-yl)-1,4-dihydropyrimidine-5-carboxylate] | 105 | 20400 | 
14 | CCOC(=O)C1=C(C2CCN(S(=O)(=O)[C@H]3C[C@H](C(=O)O)C3)CC2)NC(c2c(F)cc(F)cc2F)=NC1c1ccc(F)c(F)c1Cl (stereo partly drawn) [Compound 195A, (trans)-3-((4-(6-(2-Chloro-3,4-difluorophenyl)-5-(ethoxycarbonyl)-2-(2,4,6-trifluorophenyl)-3,6-dihydropyrimidin-4-yl)piperidin-1-yl)sulfonyl)cyclobutanecarboxylic Acid] | 84 | 43900 | 
15 | CCOC(=O)C1=C([C@H]2CC[C@H](C(=O)O)CC2)NC(c2nccs2)=NC1c1cccc(F)c1Br (stereo partly drawn) [Compound 150A, (trans)-4-(6-(2-bromo-3-fluorophenyl)-5-(ethoxycarbonyl)-2-(thiazol-2-yl)-3,6-dihydropyrimidin-4-yl)cyclohexane-1-carboxylic Acid] | 71 | 28100 | 
16 | COCCOCCOCCS(=O)(=O)N1CCC(C2=C(C(=O)OC)C(c3ccc(F)cc3Cl)N=C(c3nccs3)N2)CC1 (stereo not shown) [Compound 459, Methyl 4-(2-chloro-4-fluorophenyl)-6-(1-((2-(2-(2-methoxyethoxy)ethoxy)ethyl)sulfonyl)piperidin-4-yl)-2-(thiazol-2-yl)-1,4-dihydropyrimidine-5-carboxylate] | 41 | 93500 | 
17 | COC(=O)C1=C(C23CC(NC(C)=O)(C2)C3)NC(c2nccs2)=NC1c1ccc(F)cc1Cl (stereo not shown) [Compound 391B, Methyl 6-(3-acetamidobicyclo[1.1.1]pentan-1-yl)-4-(2-chloro-4-fluorophenyl)-2-(thiazol-2-yl)-1,4-dihydropyrimidine-5-carboxylate] | 68 | 46800 | 
18 | COC(=O)C1=C(C23CC(NS(=O)(=O)C4CNC4)(C2)C3)NC(c2nccs2)=NC1c1ccc(F)c(F)c1Cl (stereo not shown) [Compound 406, Methyl 6-(3-(azetidine-3-sulfonamido)bicyclo[1.1.1]pentan-1-yl)-4-(2-chloro-3,4-difluorophenyl)-2-(thiazol-2-yl)-1,4-dihydropyrimidine-5-carboxylate] | 600 | 5600 | 
19 | COC(=O)C1=C(C2CCN(C(N)=O)CC2)NC(c2nccs2)=NC1c1ccc(F)cc1Cl (stereo not shown) [Compound 303, Methyl 6-(1-carbamoylpiperidin-4-yl)-4-(2-chloro-4-fluorophenyl)-2-(thiazol-2-yl)-1,4-dihydropyrimidine-5-carboxylate] | 54 | > 100000 | 
20 | COC(=O)C1=C(C2CCCN(S(C)(=O)=O)CC2)NC(c2nccs2)=NC1c1ccc(F)cc1Cl (single isomer, unassigned) [Compound 383A, Methyl 4-(2-chloro-4-fluorophenyl)-6-(1-(methylsulfonyl)azepan-4-yl)-2-(thiazol-2-yl)-1,4-dihydropyrimidine-5-carboxylate] | 87 | 32900 | 
21 | COC(=O)C1=C(C2CCC(C(=O)O)C2)NC(c2nccs2)=NC1c1ccc(F)cc1Cl (single isomer, unassigned) [Compound 72C, 3-(6-(2-Chloro-4-fluorophenyl)-5-(methoxycarbonyl)-2-(thiazol-2-yl)-3,6-dihydropyrimidin-4-yl)cyclopentanecarboxylic Acid] |  | 22100 | 475
22 | COC(=O)C1=C(C2CCN(S(=O)(=O)c3cnn(CCC(C)(C)O)c3)CC2)NC(c2nccs2)=NC1c1ccc(F)cc1Cl (stereo not shown) [Compound 458, Methyl 4-(2-chloro-4-fluorophenyl)-6-(1-((1-(3-hydroxy-3-methylbutyl)-1H-pyrazol-4-yl)sulfonyl)piperidin-4-yl)-2-(thiazol-2-yl)-1,4-dihydropyrimidine-5-carboxylate] | < 4.6 | 15500 | 
23 | CCOC(=O)C1=C(C2CCN(S(=O)(=O)[C@H]3C[C@@H](C(=O)O)C3)CC2)NC(c2nccs2)=NC1c1ccc(F)c(F)c1Cl (relative stereo) [Compound 370D, (cis)-3-((4-(6-(2-Chloro-3,4-difluorophenyl)-5-(ethoxycarbonyl)-2-(thiazol-2-yl)-3,6-dihydropyrimidin-4-yl)piperidin-1-yl)sulfonyl)cyclobutanecarboxylic Acid] | 40 | 26300 | 
